Reference: US20250270330A1, “TREATMENT OF HEADACHE DISORDERS WITH NK3 MODULATORS” (Kallyope, Inc., priority 2022, published 2025)

How the values were obtained:
luteinizing hormone (LH) = assay: Luteinizing hormone (LH) inhibition studies, serum LH by ELISA; assay type: in vivo, castrated male Sprague-Dawley rats; conditions: for reduction in LH levels: 100 mg/kg
Method: Studies measuring LH were performed on castrated male Sprague-Dawley rats. Briefly, animals were castrated through a midline scrotal incision using Zoletil® 50 as an anesthetic. Surgeries were performed at least 15 days before compound testing.
Serum was collected at baseline, then every 15 minutes starting from 30 minutes after PO […] dosing with vehicle, fezolinetant (30 mg/kg), or SB 235375 (30 and 100 mg/kg). Blood was collected from the jugular vein, transferred into 1.5-mL centrifuge tubes, and centrifuged at 8000 g for 15 minutes to separate the serum. Serum LH levels were determined using a rat luteinizing hormone ELISA kit (Colorimetric, Novus). The assays were performed following the manufacturer's protocol. Group sizes were from n=10 for the vehicle and SB 235375 groups and n=4 for fezolinetant.

[1] = system: rats with inflammatory soup-sensitized trigeminal ganglia; assay: In vivo migraine headache model: von Frey periorbital threshold after GTN challenge; set-up: species or system Sprague-Dawley rats
Method: Surgeries were performed as previously described in Oshinsky, M. L. & Gomonchareonsiri, S., Episodic dural stimulation in awake rats: a model for recurrent headache, 47 HEADACHE 1026-1036 (2007). Adult male Sprague-Dawley rats were habituated towards handling for 1-2 weeks before undergoing dural cannulation surgery under isoflurane anesthesia. Attention was given not to disturb the dura. A custom flange guide cannula (22GA, Plastics One) was inserted. The cannula was fixed to the bone with small screws and dental cement.
After 1-2 weeks of recovery from surgery, animals received supradural infusions of an inflammatory soup comprising 2 mM histamine, bradykinin, serotonin, 0.2 mM prostaglandin E2 under brief isoflurane anesthesia (1.5-3%) for 5 consecutive days (1/day) (i.e., the 5-day sensitization period).
The design was within-subjects with the same animals receiving multiple treatments in a crossover fashion with at least one week washout between each treatment. Evoked sensory testing for mechanical allodynia was done by von Frey periorbital threshold testing. Sensory testing occurred during the day using von Frey filaments with reproducible calibrated buckling forces varying from 0.4-10 g and utilizing the up-and-down method. See Dixon, W. J., The Up-and-Down Method for Small Samples, 60 J. AM. STAT. ASSOC., 967-978 (1965); Chaplan, S. R., Bach, F. W., Pogrel, J. W., Chung, J. M. & Yaksh, T. L., Quantitative assessment of tactile allodynia in the rat paw, 53 J. NEUROSCI. METHODS 55-63 (1994) (hereinafter “Chaplan 1994”). Based on the response pattern and the force of the final filament, the periorbital threshold (g) was calculated according to the prior art method set forth, e.g., in Chaplan 1994 and Bonin, R. P., Bories, C. & De Koninck, Y., A simplified up-down method (SUDO) for measuring mechanical nociception in rodents using von Frey filaments, 10 MOL. PAIN 26 (2014). A blinded investigator tested periorbital sensitivity before drug administration, and 45 min and 1.5 h after drug administration. Studies were conducted with n=13-22.

Structure (SMILES): CC[C@H](NC(=O)c1c(OCC(=O)O)c(-c2ccccc2)nc2ccccc12)c1ccccc1 [SB 235375]
- mean LH value (luteinizing hormone (LH); 30 mg/kg PO, 0 min (baseline)): 31.6 ng/mL
- mean LH value (luteinizing hormone (LH); 30 mg/kg PO, 30 min): 33.4 ng/mL
- mean LH value (luteinizing hormone (LH); 30 mg/kg PO, 90 min): 35.8 ng/mL
- mean LH value (luteinizing hormone (LH); 30 mg/kg PO, 150 min): 30.4 ng/mL
- increase in LH levels (luteinizing hormone (LH); 30 mg/kg, 30 minutes): ~+4%
- increase in LH levels (luteinizing hormone (LH); 30 mg/kg, 90 minutes): ~+13%
- reduction in LH levels compared to vehicle (luteinizing hormone (LH); 30 mg/kg, 150 minutes): roughly 4%
- mean LH value (luteinizing hormone (LH); 100 mg/kg PO, 0 min (baseline)): 34.7 ng/mL
- mean LH value (luteinizing hormone (LH); 100 mg/kg PO, 30 min): 25.7 ng/mL
- mean LH value (luteinizing hormone (LH); 100 mg/kg PO, 90 min): 29.7 ng/mL
- mean LH value (luteinizing hormone (LH); 100 mg/kg PO, 150 min): 31.1 ng/mL
- reduction in LH levels (luteinizing hormone (LH); 30 minutes): roughly 26%
- reduction in LH levels (luteinizing hormone (LH); 90 minutes): ~14%
- reduction in LH levels (luteinizing hormone (LH); 150 minutes): ~10%
- LH levels compared to the vehicle-treated group (luteinizing hormone (LH); 30 and 100 mg/kg): did not exhibit a significant difference
- pain (periorbital) threshold ([1]; GTN + 30 and 100 mg/kg PO, 45, 90 minutes, vs GTN and vehicle): higher pain thresholds

Structure (SMILES): Cc1nsc(-c2nnc3n2CCN(C(=O)c2ccc(F)cc2)[C@@H]3C)n1 [fezolinetant]
- mean LH value (luteinizing hormone (LH); 30 mg/kg PO, 0 min (baseline)): 37.3 ng/mL
- mean LH value (luteinizing hormone (LH); 30 mg/kg PO, 30 min): 15.2 ng/mL
- mean LH value (luteinizing hormone (LH); 30 mg/kg PO, 90 min): 6.1 ng/mL
- mean LH value (luteinizing hormone (LH); 30 mg/kg PO, 150 min): 5.5 ng/mL
- reduction in LH levels compared to vehicle (luteinizing hormone (LH); 30 mg/kg, 30 minutes): approximately 60%
- reduction in LH levels compared to vehicle (luteinizing hormone (LH); 30 mg/kg, 90 minutes): roughly 85%
- reduction in LH levels compared to vehicle (luteinizing hormone (LH); 30 mg/kg, 150 minutes): roughly 85%
- LH serum concentrations (luteinizing hormone (LH); 30 mg/kg, all measured time points (30, 90, and 150 min)): significantly reduced
- withdrawal (periorbital) threshold ([1]; GTN + 30 mg/kg PO, 90 min timepoint, vs saline+vehicle or GTN+vehicle): significantly higher
- withdrawal (periorbital) threshold ([1]; GTN + 100 mg/kg PO, both timepoints (45 min, 1.5 h), vs each control group): significantly higher
